These results are taken from US20080241904A1, “PROCESS FOR PRODUCING ISOMALTOSE AND USES THEREOF” (KABUSHIKI KAISHA HAYASHIBARA SEIBUTSU KAGAKU KENKYUJO, priority 2001, published 2008).

Test [1] relates to α-isomaltosyl-transferring enzyme. Nature of the test: Influence of metal ions on activity of α-isomaltosyl-transferring enzyme (Strain C9). It is filed as biochemical, Bacillus globisporus C9. The note with it: for Effect on enzyme activity (in words): 1 mM, summary of Table 4; for Relative activity: in the presence of 1 mM of each metal ion, None = 100. As for the experimental part:
(§1) The α-isomaltosyl-transferring enzyme was assayed for enzymatic activity by dissolving panose in 100 mM acetate buffer (pH 6.0) to give a concentration of 2% (w/v) for a substrate solution, adding a 0.5 ml of an enzyme solution to 0.5 ml of the substrate solution, enzymatically reacting the mixture solution at 35° C. for 30 min, suspending the reaction mixture by boiling for 10 min, and quantifying glucose, among the cyclotetrasaccharide and glucose formed in the reaction mixture, by the glucose oxidase method. One unit activity of the α-isomaltosyl-transferring enzyme is defined as the enzyme amount that forms one micromole of glucose per minute under the above enzymatic reaction conditions.
(§2) The influence of metal ions on the activity of α-isomaltosyl-transferring enzyme was examined in the presence of 1 mM of each metal-ion according to the assay for the enzyme activity.

Test [2] relates to α-isomaltosylglucosaccharide-forming enzyme. Nature of the test: Influence of metal ions on enzyme activity, Experiment 4-2 (Strain C11). It is filed as biochemical, Bacillus globisporus C11. The note with it: for Effect on enzyme activity (in words): 1 mM, summary of Table 6; for Relative activity: in the presence of 1 mM of each metal ion, None = 100.
The test system is the same in test [3]. Kind of test: Influence of metal ions on activity of α-isomaltosylglucosaccharide-forming enzyme (Strain C9). In kind it is biochemical, Bacillus globisporus C9. Particulars: for Effect on enzyme activity (in words): 1 mM, summary of Table 2; for Relative activity: in the presence of 1 mM of each metal ion, None = 100. As for the experimental part: The activities of these enzymes were assayed as follows: The α-isomaltosylglucosaccharide-forming enzyme of the present invention was assayed for enzymatic activity by dissolving maltotriose in 100 mM acetate buffer (pH 6.0) to give a concentration of 2% (w/v) for a substrate solution, adding a 0.5 ml of an enzyme solution to a 0.5 ml of the substrate solution, enzymatically reacting the mixture solution at 35° C. for 60 min, suspending the reaction mixture by heating at 100° C. for 10 min, and quantifying maltose, among the isomaltosyl maltose and maltose formed in the reaction mixture, by high-performance liquid chromatography (abbreviated as “HPLC” hereinafter). HPLC was carried out using “YMC PACK ODS-AQ303 column” commercialized by YMC Co., Ltd., Tokyo, Japan, at a column temperature of 40° C. and a flow rate of 0.5 ml/min of water; and using “RI-8012”, a differential refractometer commercialized by Tosoh Corporation, Tokyo, Japan. One unit activity of the α-isomaltosylglucosaccharide-forming enzyme is defined as the enzyme amount that forms one micromole of maltose per minute under the above enzymatic reaction conditions.
The influence of metal ions on the activity of α-isomaltosylglucosaccharide-forming enzyme was examined in the presence of 1 mM of each metal-ion according to the assay for the enzyme activity.

Test [4] relates to α-isomaltosyl-transferring enzyme. Nature of the test: Influence of metal ions on activity of α-isomaltosyl-transferring enzyme (Strain C11). Particulars: for Effect on enzyme activity (in words): 1 mM, summary of Table 8; for Relative activity: in the presence of 1 mM of each metal ion, None = 100. It is filed as biochemical, Bacillus globisporus C11. As for the experimental part:
as §1, §2

For `[Ca+2]` [Ca^2+], the “Effect on enzyme activity (in words)” value in test [1] was “not activated”; in test [2] it was “activated”; in test [3] it was “activated”; in test [4], “not activated”. For the same compound, the Relative activity in test [1] came to 101%; in test [2], 109%; in test [3] it was 115%; in test [4], 91%.

For `[Co+2]` [Co^2+], the Relative activity was found to be 103% in test [1], 96% in test [2], 100% in test [3] and 89% in test [4].

On to `[Cu+2]` [Cu^2+], for which the “Effect on enzyme activity (in words)” value in test [1] is “inhibited”; in test [2], “greatly inhibited”; in test [3], “greatly inhibited”; in test [4], “inhibited”. For the same compound, the Relative activity in test [1] turned out to be 57%; in test [2] it was 23%; in test [3], 15%; in test [4], 56%.

For the compound `O=C(O)CN(CCN(CC(=O)O)CC(=O)O)CC(=O)O` [EDTA], the “Effect on enzyme activity (in words)” value is recorded as “not inhibited” in test [1], “greatly inhibited” in test [2], “greatly inhibited” in test [3] and “not inhibited” in test [4]. For the same compound, the Relative activity amounted to 104% in test [1], 24% in test [2], 20% in test [3] and 98% in test [4].

Turning to `[Hg+2]` [Hg^2+], the “Effect on enzyme activity (in words)” value in test [1], in test [2], in test [3] and in test [4] was “greatly inhibited” throughout. Besides, the Relative activity in test [1] is given as 1%; in test [2] it was 4%; in test [3] it was 4%; in test [4] it was 2%.

Turning to `[Mn+2]` [Mn^2+], the Relative activity is 106% in test [1], 142% in test [2], 111% in test [3] and 93% in test [4]. Besides, the “Effect on enzyme activity (in words)” value in test [2] and in test [3] was “activated” throughout.

Consider `[Pb+2]` [Pb^2+], for which the Relative activity in test [1] amounted to 89%; in test [2], 101%; in test [3], 103%; in test [4], 74%.

Turning to `[Sr+2]` [Sr^2+], the Relative activity came out at 101% in test [1], 83% in test [2], 80% in test [3] and 93% in test [4]. Moreover, the “Effect on enzyme activity (in words)” value in test [2] and in test [3] was “inhibited” each time.

As to `[Zn+2]` [Zn^2+], the Relative activity is 88% in test [1], 91% in test [2], 92% in test [3] and 83% in test [4].
